15 compounds from patent US20210403435A1, “HERBICIDAL COMPOUNDS” (SYNGENTA CROP PROTECTION AG, priority 2018, published 2021) can be followed below.

Structures can show the parent of a compound that is named as a salt.

Assay in all cases: Post-emergence efficacy, glasshouse, evaluated after 13 days
Type in all cases: in vivo

Assay [1] has as its system Chenopodium album (CHEAL). The conditions noted are these: Chenopodium album, 312 h; post-emergence application, 500 g/Ha, evaluated after 13 days; read-out: Control of weed species CHEAL (100=total damage to plant; 0=no damage to plant). The gist of the method:
(§1)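 Damage was rated visually 13 days after treatment on a 0–100 scale, where 100 meant total damage. Plants had been raised for 14 days in soil under glasshouse conditions (24/16 °C, 14 h light, 65% humidity) before spraying with an aqueous dilution of an IF50-based formulation.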

Assay [2] has as its system Amaranthus palmeri (AMAPA). The note with it: Amaranthus palmeri, 312 h; post-emergence application, 500 g/Ha, evaluated after 13 days; read-out: Control of weed species AMAPA (100=total damage to plant; 0=no damage to plant). The gist of the method: as §1
The subject of assay [3] is Setaria faberi (SETFA). The conditions noted are these: Setaria faberi, 312 h; post-emergence application, 500 g/Ha, evaluated after 13 days; read-out: Control of weed species SETFA (100=total damage to plant; 0=no damage to plant). The gist of the method: as §1
Assay [4] has as its system Digitaria sanguinalis (DIGSA). The conditions noted are these: Digitaria sanguinalis, 312 h; post-emergence application, 500 g/Ha, evaluated after 13 days; read-out: Control of weed species DIGSA (100=total damage to plant; 0=no damage to plant). The gist of the method: as §1
Assay [5] has as its system Ipomoea hederacea (IPOHE). The conditions noted are these: Ipomoea hederacea, 312 h; post-emergence application, 500 g/Ha, evaluated after 13 days; read-out: Control of weed species IPOHE (100=total damage to plant; 0=no damage to plant). The gist of the method:
as §1

In assay [6] the test system is Lolium perenne (LOLPE). The note with it: Lolium perenne, 312 h; post-emergence application, 500 g/Ha, evaluated after 13 days; read-out: Control of weed species LOLPE (100=total damage to plant; 0=no damage to plant). Put shortly: as §1
In assay [7] the test system is Echinochloa crus-galli (ECHCG). The conditions noted are these: Echinochloa crus-galli, 312 h; post-emergence application, 500 g/Ha, evaluated after 13 days; read-out: Control of weed species ECHCG (100=total damage to plant; 0=no damage to plant). The gist of the method:
as §1

For assay [8], the system named is Euphorbia heterophylla (EPHHL). The conditions noted are these: Euphorbia heterophylla, 312 h; post-emergence application, 500 g/Ha, evaluated after 13 days; read-out: Control of weed species EPHHL (100=total damage to plant; 0=no damage to plant). Put shortly: as §1
Assay [9] has as its system Eleusine indica (ELEIN). The note with it: Eleusine indica, 312 h; post-emergence application, 500 g/Ha, evaluated after 13 days; read-out: Control of weed species ELEIN (100=total damage to plant; 0=no damage to plant). Put shortly: as §1

As to `CS(=O)(=O)CCNC(=O)c1cc[n+](CCC(=O)O)nc1` [Compound A104], the pest or weed control at 500 g/ha in assay [1] came to 100%; in assay [2], 100%; in assay [3] it was 100%; in assay [4], 100%; in assay [5] it was 80%; in assay [6] it was 70%. Also, the pest or weed control at 500 g/ha was 70% in assay [7], 100% in assay [8] and 100% in assay [9].
With `CC1(C)CC1NC(=O)c1cc[n+](CCC(=O)O)nc1` (stereo not drawn) [Compound A137], the pest or weed control at 500 g/ha in [1] came out at 90%; in [2], 100%; in [3], 70%; in assay [4], 100%; in [5], 0%; in assay [6], 100%. The pest or weed control at 500 g/ha was determined as 100% in [7], 10% in assay [8] and 100% in assay [9].
Turning to `CC(C)(C)NC(=O)c1cc[n+](CCC(=O)O)nc1` [Compound A15], the pest or weed control at 500 g/ha turned out to be 100% in assay [1]; 100% in [2]; 100% in assay [3]; 90% in assay [4]; 30% in assay [5]; 70% in assay [6]. Moreover, the pest or weed control at 500 g/ha in assay [7] was 90%; in assay [8] it was 90%; in assay [9], 100%.
For the compound `O=C(Nc1ccccc1)c1cc[n+](CCS(=O)(=O)[O-])nc1` [Compound A7], the pest or weed control at 500 g/ha in [1] came out at 90%; in assay [2] it was 100%; in [3] it was 30%; in [4], 20%; in [5] it was 10%; in assay [6], 20%. Also, the pest or weed control at 500 g/ha in [7] was 20%; in assay [8] it was 60%; in [9], 40%.
`CN(C(=O)c1cc[n+](CCC(=O)O)nc1)c1ccccc1` [Compound A38, 3-[4-[methyl(phenyl)carbamoyl]pyridazin-1-ium-1-yl]propanoic acid trifluoroacetate]: the pest or weed control at 500 g/ha in assay [1] worked out at 90%; in assay [2], 100%; in [3], 90%; in assay [4], 70%; in assay [5], 40%; in [6], 20%. Further, the pest or weed control at 500 g/ha was 60% in [7], 80% in assay [8] and 60% in assay [9].
Turning to `O=C(O)CC[n+]1ccc(C(=O)NCc2nccs2)cn1` [Compound A146], the pest or weed control at 500 g/ha in assay [1] was 80%; in assay [2], 80%; in assay [3], 90%; in assay [4] it was 100%; in [5] it was 20%; in assay [6], 100%. Also, the pest or weed control at 500 g/ha in [7] was found to be 100%; in assay [8] it was 20%; in assay [9] it was 80%.
Turning to `C#CCCNC(=O)c1cc[n+](CCC(=O)O)nc1` [Compound A114], the pest or weed control at 500 g/ha was found to be 90% in assay [1]; 100% in assay [2]; 100% in assay [3]; 100% in [4]; 60% in assay [5]; 80% in [6]. For the same compound, the pest or weed control at 500 g/ha in [7] is 90%; in [8], 80%; in assay [9], 100%.
On to `CC1(NC(=O)c2cc[n+](CCC(=O)O)nc2)CC1` [Compound A92], for which the pest or weed control at 500 g/ha in [1] was 100%; in [2] it was 100%; in assay [3], 100%; in [4], 100%; in assay [5], 50%; in assay [6], 90%. Further, the pest or weed control at 500 g/ha in [7] worked out at 80%; in assay [8], 100%; in assay [9] it was 90%.
For `O=C(O)CC[n+]1ccc(C(=O)NC2(C(F)(F)F)CC2)cn1` [Compound A94], the pest or weed control at 500 g/ha in assay [1] was found to be 100%; in assay [2], 100%; in assay [3], 90%; in assay [4], 90%; in assay [5], 60%; in assay [6] it was 80%. In addition, the figures for the pest or weed control at 500 g/ha in assay [7], in [8] and in assay [9] were 80%, 90% and 100%, respectively.
Regarding `COCC(C)NC(=O)c1cc[n+](CCC(=O)O)nc1` (stereo not drawn) [Compound A132], the pest or weed control at 500 g/ha in assay [1] is 100%; in [2], 100%; in [3], 100%; in [4] it was 100%; in assay [5], 40%; in [6], 90%. Also, the pest or weed control at 500 g/ha was 90% in assay [7], 70% in [8] and 100% in assay [9].
Take `CCNC(=O)c1cc[n+](CCCC(=O)O)nc1` [Compound A74]: the pest or weed control at 500 g/ha in assay [1] was 90%; in [2], 100%; in assay [3], 70%; in assay [4], 80%; in [5] it was 40%; in assay [6], 80%. Moreover, the pest or weed control at 500 g/ha in assay [7] was found to be 60%; in assay [8], 60%; in [9] it was 80%.
Take `Cn1cnc(CNC(=O)c2cc[n+](CCC(=O)O)nc2)n1` [Compound A147]: the pest or weed control at 500 g/ha in assay [1] amounted to 90%; in assay [2] it was 100%; in assay [3] it was 80%; in [4] it was 100%; in assay [5], 40%; in [6] it was 90%. Also, the pest or weed control at 500 g/ha in assay [7] amounted to 90%; in assay [8] it was 80%; in assay [9], 90%.
In the case of `O=C(NC1CC1)c1cc[n+](CCS(=O)(=O)[O-])nc1` [Compound A30], the pest or weed control at 500 g/ha in [1] stood at 100%; in assay [2], 100%; in assay [3] it was 70%; in assay [4], 70%; in [5], 70%; in assay [6] it was 70%. For the same compound, the values for the pest or weed control at 500 g/ha in assay [7], in [8] and in assay [9] were 40%, 70% and 80%, respectively.
On to `CCNC(=O)c1cc[n+](CCOS(=O)(=O)[O-])nc1` [Compound A80], for which the pest or weed control at 500 g/ha in assay [1] was found to be 100%; in assay [2] it was 100%; in assay [3], 80%; in assay [4] it was 90%; in [5], 70%; in assay [6], 70%. The pest or weed control at 500 g/ha in assay [7], in assay [8] and in assay [9] was 90% throughout.
Consider `CC1(C)CC(NC(=O)c2cc[n+](CCC(=O)O)nc2)=NO1` [Compound A131], for which the pest or weed control at 500 g/ha in [1] was found to be 10%; in assay [2] it was 30%; in [3], 30%; in assay [4], 30%; in assay [5], 30%; in [6], 0%. The figures for the pest or weed control at 500 g/ha in assay [7], in assay [8] and in assay [9] were 30%, 90% and 20%, respectively.
